Results on one molecule are retold here after paper PMC9220178, “Preclinical Characterization of Antioxidant Quinolyl Nitrone QN23 as a New Candidate for the Treatment of Ischemic Stroke” (Antioxidants, 2022).

The subject of assay [1] is adult male Wistar rats, four-vessel occlusion (4VO) transient forebrain ischemia. Briefly: Neurological deficit score (NDS) after global cerebral ischemia (4VO). In kind it is in vivo, rat. Particulars: R5d. As for the experimental part: Transient forebrain ischemia was induced in adult male Wistar rats (10–12 weeks, Charles River, L’Arbresle, France) by the standard four-vessel occlusion (4VO) model previously described. Briefly, animals were anesthetized by intraperitoneal injection of a combination of ketamine, diazepam, and atropine (62.5, 5.0, and 0.25 mg/kg, respectively); positioned in a stereotactic device; and both vertebral arteries were cauterized. The next day, anesthesia was induced with 4% isoflurane and maintained at 2–2.5% isoflurane for carotid artery dissection. After anesthesia withdrawal, the carotid arteries were occluded with an atraumatic vascular clamp to induce brain ischemia. During the entire surgical procedure, temperature was monitored at 2 min intervals and kept at 37 °C. After 15 min of ischemia, the carotid arteries were unclamped for brain reperfusion. The animals were studied after 5 days of reperfusion (R5d), or after 11 weeks of reperfusion (long-term studies), and then they were euthanized under deep anesthesia. Animals from the sham control group were handled in the same way, but without occlusion of the carotid arteries. Ischemic animals were treated with vehicle solution (ethanol/polyethylene glycol 400/saline, 1:300:200 v/v), or with nitrones QN23 or NXY-059 in vehicle solution, as a single injection through the tail vein at the onset of reperfusion. For the therapeutic window experiments, the animals were also treated at reperfusion times 1, 3, and 6 h after ischemia. The treatments were prepared by an independent researcher and administered with concealed allocation. Treatments were administered in a randomized order obtained by a computer-based randomization program. […]
After 5 days of post-ischemic reperfusion (R5d), neurological deficits were evaluated in the animals by a researcher blind to the treatment allocation. General status and mobility impairments were quantified according to a scale previously validated in an entire cohort of R5d animals (n = 20). […]

Assay [2] relates to experimental cerebral ischemia. Further details: method as in PMID 30715875. As to conditions: 1.5 mg/kg intraperitoneally; cited from earlier work.
For assay [3], the system named is adult male Wistar rats, four-vessel occlusion (4VO) transient forebrain ischemia. Put plainly: Neuronal death by Fluoro-Jade B staining after transient global cerebral ischemia (4VO). As to conditions: for Neuroprotection (neuronal death, Fluoro-Jade B): vehicle = 0%. In kind it is in vivo, rat. As for the experimental part:
Transient forebrain ischemia was induced in adult male Wistar rats (10–12 weeks, Charles River, L’Arbresle, France) by the standard four-vessel occlusion (4VO) model previously described. Briefly, animals were anesthetized by intraperitoneal injection of a combination of ketamine, diazepam, and atropine (62.5, 5.0, and 0.25 mg/kg, respectively); positioned in a stereotactic device; and both vertebral arteries were cauterized. The next day, anesthesia was induced with 4% isoflurane and maintained at 2–2.5% isoflurane for carotid artery dissection. After anesthesia withdrawal, the carotid arteries were occluded with an atraumatic vascular clamp to induce brain ischemia. During the entire surgical procedure, temperature was monitored at 2 min intervals and kept at 37 °C. After 15 min of ischemia, the carotid arteries were unclamped for brain reperfusion. The animals were studied after 5 days of reperfusion (R5d), or after 11 weeks of reperfusion (long-term studies), and then they were euthanized under deep anesthesia. Animals from the sham control group were handled in the same way, but without occlusion of the carotid arteries. Ischemic animals were treated with vehicle solution (ethanol/polyethylene glycol 400/saline, 1:300:200 v/v), or with nitrones QN23 or NXY-059 in vehicle solution, as a single injection through the tail vein at the onset of reperfusion. For the therapeutic window experiments, the animals were also treated at reperfusion times 1, 3, and 6 h after ischemia. The treatments were prepared by an independent researcher and administered with concealed allocation. Treatments were administered in a randomized order obtained by a computer-based randomization program. To determine the sample size, a power analysis (http://www.biomath.info/power/ttest.htm, accessed on 12 March 2020) with significance level set at 0.05 and statistical power set at 0.8 (80%) rendered a sample size of <6 subjects per group. A total of 120 ischemic animals (30 animals treated with vehicle, 60 treated with QN23, and 30 treated with NXY-059) and 9 sham control animals were included in these studies. Additionally, 13 animals were excluded from the study: 6 animals were not ischemic and 7 animals died within the 24 h after the surgical procedure (5 vehicles, 1 QN23-treated at 1.0 mg/kg, and 1 QN23-treated at 2.0 mg/kg). The Animal Care Ethics Committee of the Hospital Universitario Ramón y Cajal (Madrid, Spain) authorized all the procedures involving the animal experimentation reported here (authorization number 04/2020). These experiments were performed according to ARRIVE guidelines and the legislation on the protection of animals used for scientific purposes in Spain (RD 53/2013) and the EU (Directive 2010/63/EU). The study was designed and conducted according to the STAIR guidelines regarding physiological monitoring, sample randomization, predefined exclusion criteria, allocation concealment, blinded assessment of outcomes, dose–response definition, and a conflict-of-interest statement.
After 5 days of reperfusion (R5d), or at 11 weeks of reperfusion in long-term studies, animals were euthanized by transcardiac perfusion via the left ventricle under deep anesthesia. First, blood was washed out with 200 mL of ice-cold saline medium, followed by fixation with 4% (w/v) paraformaldehyde solution in PBS for brain preservation. Then, the brains were carefully removed from the cranial cavity and placed in 4% (w/v) paraformaldehyde solution in PBS overnight at 4 °C. The next day, the brains were sequentially placed in 10%, 20%, and 30% (w/v) sucrose in PBS until sunken, and finally embedded in Tissue-Tek O.C.T. (Sakura Finetek, Torrance, CA, USA) before freezing at −80 °C. Brain coronal sections containing the hippocampus region were obtained by cryostat sectioning at the level of interaural line +5.7 ± 0.2 mm on Real Capillary Gap microscope slides (Agilent Dako, Santa Clara, CA, USA). […]

The mark [4] stands for this setting: cerebral cortex, 2.0 mg/kg i.v. at reperfusion onset, R5d.

On to `COc1ccc2nc(Cl)c(/C=[N+](\[O-])C(C)(C)C)cc2c1` [QN23, (Z)-N-tert-Butyl-1-(2-chloro-6-methoxyquinolin-3-yl)methanimine Oxide], for which the “General status (neurological deficit score, NDS) compared with vehicle” value in assay [1] (2.0 mg/kg i.v. at reperfusion onset) is on record as “significant improvement”. In addition, the “Therapeutic window: administration time after reperfusion onset with significantly reduced NDS” value in assay [1] (2.0 mg/kg i.v., times tested 0, 1, 3, 6 h) is “up to 3 h”. The “Neuroprotective effect (neuronal death and neuronal apoptosis assays)” value in assay [2] was “significant neuroprotective effect”. The “Therapeutic window: injection time after reperfusion onset with significantly decreased neuronal death” value in assay [3] (2.0 mg/kg i.v., CA1 and cortical regions, R5d, times tested 0, 1, 3, 6 h) is listed as “up to 3 h”. In addition, the “Neuroprotection (neuronal death, Fluoro-Jade B)” value is given as 89.2% in assay [3] (cerebral cortex, 1.5 mg/kg i.v. at reperfusion onset, R5d); 89.5% in assay [3] (setting [4]); 22.6% in assay [3] (hippocampal CA1, 1.5 mg/kg i.v. at reperfusion onset, R5d); 23.8% in assay [3] (hippocampal CA1, 2.0 mg/kg i.v. at reperfusion onset, R5d). Moreover, the “Neuronal death compared with vehicle” value in assay [3] (setting [4]) is on record as “significantly reduced”; in assay [3] (hippocampal CA1, 2.0 or 2.5 mg/kg i.v. at reperfusion onset, R5d), “significantly reduced”. In addition, the “EC50 of neuroprotection, neuronal death assay” value in assay [3] (either CA1 or cortical region, i.v., from dose-response curve) is 0.3 mg/kg.
